Measured values from publication PMC8854719, “Phase 1A/1B dose-escalation and -expansion study to evaluate the safety, pharmacokinetics, food effects and antitumor activity of pamiparib in advanced solid tumours” (British Journal of Cancer, 2021).

Tests used:
[1] = tested on: BCRP (breast cancer resistance protein); set-up: method as in PMID 32652442; settings: cited from earlier work
[2] = tested on: P-glycoprotein; set-up: method as in PMID 32652442; settings: cited from earlier work
[3] = tested on: poly(ADP-ribose [PAR]) formation in peripheral blood mononuclear cells (PBMCs); test: PAR inhibition in PBMCs (ELISA); assay type: in vivo; settings: Homo sapiens, PBMC; sustained at doses of 10 mg BID or higher
Description: Pamiparib in plasma was measured using a validated liquid chromatography-tandem–mass spectrometry assay with a lower limit of quantification of 1.0 ng/mL. The collection schedule for blood samples used to assess the PK profile is presented in the Supplemental Appendix. Summary PK parameters, including area under the concentration-time curve from time 0 to 9 h (AUC0-9) or infinity (AUC0-inf), maximal plasma concentration (Cmax) and time to maximal plasma concentration (Tmax), were estimated. The pharmacodynamic (PD) activity of pamiparib was explored through the evaluation of poly(ADP-ribose [PAR]) formation in peripheral blood mononuclear cells (PBMCs) after pamiparib administration. The schedule for blood sample collection (PK and PBMCs) and additional assessment information for PAR levels in PBMCs and pharmacodynamic activity is presented in the Supplemental Appendix. Antitumor activity was assessed by radiographic imaging (computed tomography or magnetic resonance imaging) during screening, within 28 days of first pamiparib dose, every 6 weeks in the first 12 months and every 9 weeks thereafter.
Time-matched blood samples (PK and PBMCs) were obtained on Day 1 (predose and 4 hours postdose) and Day 17 (4 hours postdose) of Cycle 1. The PAR levels in PBMCs were measured by a validated ELISA assay using a commercial PARP pharmacodynamic assay kit (Trevigen, Gaithersburg, MD). […]

## C[C@]12CCCN1CC1=NNC(=O)c3cc(F)cc4[nH]c2c1c34 [pamiparib]
[1]
  Substrate of BCRP: not a substrate
[2]
  Substrate of P-glycoprotein: not a substrate
[3]
  inhibition at 10 mg: ~80%
